Assays:
human FPGS = conditions: at concentrations up to 1045 µM; cited from earlier work
E. coli DHFR = E. coli DHFR (Escherichia coli, UniProt P0ABQ4); test: Inhibition of E. coli DHFR; type: biochemical; conditions: read-out: % inhibition of E. coli DHFR at the stated concentration
T. gondii DHFR = target: T1, T. gondii DHFR (Toxoplasma gondii, UniProt Q07422); test: biochemical
T1 sequence (Q07422 1-610): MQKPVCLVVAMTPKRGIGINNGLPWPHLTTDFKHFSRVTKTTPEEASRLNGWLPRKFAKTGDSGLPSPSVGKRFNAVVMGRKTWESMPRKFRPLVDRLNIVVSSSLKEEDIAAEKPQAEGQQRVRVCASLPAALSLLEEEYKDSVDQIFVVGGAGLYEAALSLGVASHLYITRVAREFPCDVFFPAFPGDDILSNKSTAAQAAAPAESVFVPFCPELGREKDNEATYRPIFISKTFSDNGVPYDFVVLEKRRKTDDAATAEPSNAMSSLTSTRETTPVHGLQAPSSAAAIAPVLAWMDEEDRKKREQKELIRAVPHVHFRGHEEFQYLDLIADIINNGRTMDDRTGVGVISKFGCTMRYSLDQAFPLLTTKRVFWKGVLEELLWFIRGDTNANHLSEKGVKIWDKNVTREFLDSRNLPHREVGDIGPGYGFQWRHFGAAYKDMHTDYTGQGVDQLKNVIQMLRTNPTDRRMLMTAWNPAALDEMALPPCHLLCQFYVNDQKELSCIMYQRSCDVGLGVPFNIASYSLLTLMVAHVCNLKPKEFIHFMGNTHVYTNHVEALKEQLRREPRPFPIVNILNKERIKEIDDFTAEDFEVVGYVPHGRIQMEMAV

T. gondii TS = target: T2, T. gondii TS (Toxoplasma gondii, UniProt Q07422); test: biochemical
T2 sequence (Q07422 1-610): T1 sequence (Q07422 1-610)

E. coli TS = E. coli TS (Escherichia coli, UniProt P0A884); test: Inhibition of E. coli TS; type: biochemical
human TS = human TS (Homo sapiens, UniProt P04818); test: Inhibition of human TS; type: biochemical
human DHFR = target: T3, human DHFR (Homo sapiens, UniProt P00374); test: Inhibition of human DHFR; type: biochemical
T3 sequence (P00374 1-187): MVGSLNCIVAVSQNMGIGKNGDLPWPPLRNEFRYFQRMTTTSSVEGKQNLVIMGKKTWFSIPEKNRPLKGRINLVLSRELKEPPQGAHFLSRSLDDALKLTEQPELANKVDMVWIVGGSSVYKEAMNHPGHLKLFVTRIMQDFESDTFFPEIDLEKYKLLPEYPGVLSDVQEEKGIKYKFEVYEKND

Chain of E. coli TS (P0A884 whole entry): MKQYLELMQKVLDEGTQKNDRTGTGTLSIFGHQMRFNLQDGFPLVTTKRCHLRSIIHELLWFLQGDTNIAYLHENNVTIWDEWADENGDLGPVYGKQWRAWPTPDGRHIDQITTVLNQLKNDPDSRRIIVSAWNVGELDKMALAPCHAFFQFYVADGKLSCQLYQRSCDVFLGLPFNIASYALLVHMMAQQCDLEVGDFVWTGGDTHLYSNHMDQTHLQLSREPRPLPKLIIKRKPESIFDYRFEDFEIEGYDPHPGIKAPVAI
Chain of E. coli DHFR (P0ABQ4 whole entry): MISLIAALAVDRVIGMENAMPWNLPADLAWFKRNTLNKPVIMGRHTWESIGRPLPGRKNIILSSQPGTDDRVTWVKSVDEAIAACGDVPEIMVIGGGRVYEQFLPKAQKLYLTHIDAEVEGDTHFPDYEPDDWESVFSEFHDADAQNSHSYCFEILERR
Chain of human TS (P04818 whole entry): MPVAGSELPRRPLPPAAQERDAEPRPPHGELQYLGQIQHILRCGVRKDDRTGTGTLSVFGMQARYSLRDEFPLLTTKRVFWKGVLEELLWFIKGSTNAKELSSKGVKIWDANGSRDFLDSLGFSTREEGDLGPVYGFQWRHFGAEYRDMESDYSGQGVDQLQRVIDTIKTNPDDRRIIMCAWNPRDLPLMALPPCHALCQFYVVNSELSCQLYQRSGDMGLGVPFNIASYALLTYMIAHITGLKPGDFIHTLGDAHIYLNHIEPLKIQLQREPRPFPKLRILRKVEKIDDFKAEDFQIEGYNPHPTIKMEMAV

In the case of `Cc1[nH]c2nc(N)[nH]c(=O)c2c1Sc1ccc(C(=O)N[C@@H](CCC(=O)O)C(=O)O)cc1` [Compound 1, N-{4-[(2-amino-6-methyl-4-oxo-4,7-dihydro-3H-pyrrolo[2,3-d]pyrimidin-5-yl)thio]benzoyl}-L-glutamic acid], the “Substrate for human FPGS” value (human FPGS) is given as “not a substrate”.

With `COc1ccc(OC)c(Sc2c(C)sc3nc(N)[nH]c(=O)c23)c1` [Compound 8, 2-Amino-5-[(2,5-dimethoxyphenyl)sulfanyl]-6-methylthieno[2,3-d]pyrimidin-4(3H)-one] the inhibition at 28 µM (E. coli DHFR) was 0%, the IC50 (T. gondii DHFR) was 0.056 µM and the IC50 (T. gondii TS) was over 23 µM. It also gave an inhibition at 23 µM (T. gondii TS; read-out: % inhibition of T. gondii TS at the stated concentration) of 0%, an IC50 (E. coli TS) of over 23 µM and an inhibition at 23 µM (E. coli TS; read-out: % inhibition of E. coli TS at the stated concentration) of 36%. For the same compound, the IC50 (human TS) was 4.6 µM and the IC50 (human DHFR) was 22 µM.
